According to BigSolDB 2.1:

CC[C@H](CC[C@@H](C)[C@H]1CC[C@H]2[C@@H]3CC=C4C[C@@H](O)CC[C@]4(C)[C@H]3CC[C@]12C)C(C)C
solubility (mole fraction)
Conditions | in acetone | in ethanol | in ethyl acetate | in methanol | in n-hexane
278.15 K | 0.00274 | 0.0013 | 0.00447 | 0.000136 | 0.000862
283.15 K | 0.00322 | 0.00158 | 0.0053 | 0.000167 | 0.00103
288.15 K | 0.00379 | 0.0019 | 0.00627 | 0.000205 | 0.00123
293.15 K | 0.00446 | 0.00229 | 0.00738 | 0.000248 | 0.00147
298.15 K | 0.00525 | 0.00274 | 0.00872 | 0.000299 | 0.00173
303.15 K | 0.00616 | 0.00328 | 0.0103 | 0.000357 | 0.00205
308.15 K | 0.00724 | 0.00389 | 0.012 | 0.000427 | 0.0024
313.15 K | 0.00852 | 0.0046 | 0.014 | 0.000509 | 0.0028
318.15 K | 0.01 | 0.0054 | 0.0163 | 0.000606 | 0.00326
323.15 K | 0.0118 | 0.00632 | 0.019 | 0.00072 | 0.00377
328.15 K | 0.0139 | 0.00738 | – | 0.000855 | 0.00436
333.15 K | – | 0.00856 | – | – | 0.005
